Data: the NIST ThermoML archive (doi:10.1016/j.jct.2018.03.007)
Numbers after ± are expanded uncertainties.

Tests used:
[1] = 100 kPa, Liquid; for speed of sound: Linear variable-path acoustic interferometer; for mass density: Vibrating tube method
[2] = xn = mol fraction of the nth substance listed; settings: 100 kPa, Liquid, x2 = 0; for speed of sound: Linear variable-path acoustic interferometer; for mass density: Vibrating tube method

Compound: CCn1cc[n+](C)c1.O=S(=O)([O-])O [1-ethyl-3-methylimidazolium hydrogen sulfate]
- speed of sound ([1]; 298.15 K, Frequency=2 MHz): 1982.8 ± 2.8 m/s
- mass density ([1]; 298.15 K): 1365.75 ± 2.5 kg/m3
- speed of sound ([1]; 303.15 K, Frequency=2 MHz): 1962.9 ± 2.8 m/s
- mass density ([1]; 303.15 K): 1362.62 ± 2.5 kg/m3
- speed of sound ([1]; 308.15 K, Frequency=2 MHz): 1943.1 ± 2.8 m/s
- mass density ([1]; 308.15 K): 1359.53 ± 2.5 kg/m3
- speed of sound ([1]; 313.15 K, Frequency=2 MHz): 1923.2 ± 2.8 m/s
- mass density ([1]; 313.15 K): 1356.41 ± 2.5 kg/m3

Compound: C[S+](C)[O-] [dimethyl sulfoxide]
- speed of sound ([1]; 298.15 K, Frequency=2 MHz): 1485 ± 1.7 m/s
- mass density ([1]; 298.15 K): 1095.33 ± 2 kg/m3
- speed of sound ([1]; 303.15 K, Frequency=2 MHz): 1468.3 ± 1.7 m/s
- mass density ([1]; 303.15 K): 1090.32 ± 2 kg/m3
- speed of sound ([1]; 308.15 K, Frequency=2 MHz): 1451.1 ± 1.7 m/s
- mass density ([1]; 308.15 K): 1085.31 ± 2 kg/m3
- speed of sound ([1]; 313.15 K, Frequency=2 MHz): 1434.2 ± 1.7 m/s
- mass density ([1]; 313.15 K): 1080.29 ± 2 kg/m3

Compound: C[S+](C)[O-] [dimethyl sulfoxide] + CCn1cc[n+](C)c1.O=S(=O)([O-])O
- speed of sound ([2]; 298.15 K, Frequency=2 MHz): 1485 ± 1.7 m/s
- mass density ([2]; 298.15 K): 1095.33 ± 2 kg/m3
- speed of sound ([2]; 303.15 K, Frequency=2 MHz): 1468.3 ± 1.7 m/s
- mass density ([2]; 303.15 K): 1090.32 ± 2 kg/m3
- speed of sound ([2]; 308.15 K, Frequency=2 MHz): 1451.1 ± 1.7 m/s
- mass density ([2]; 308.15 K): 1085.31 ± 2 kg/m3
- speed of sound ([2]; 313.15 K, Frequency=2 MHz): 1434.2 ± 1.7 m/s
- mass density ([2]; 313.15 K): 1080.29 ± 2 kg/m3

Compound: CCO [ethanol]
- speed of sound ([1]; 298.15 K, Frequency=3 MHz): 1142.7 ± 1.5 m/s
- mass density ([1]; 298.15 K): 785.26 ± 2 kg/m3
- speed of sound ([1]; 303.15 K, Frequency=3 MHz): 1125.3 ± 1.5 m/s
- mass density ([1]; 303.15 K): 780.98 ± 2 kg/m3
- speed of sound ([1]; 308.15 K, Frequency=3 MHz): 1108.8 ± 1.5 m/s
- mass density ([1]; 308.15 K): 776.66 ± 2 kg/m3
- speed of sound ([1]; 313.15 K, Frequency=3 MHz): 1091.5 ± 1.5 m/s
- mass density ([1]; 313.15 K): 772.28 ± 2 kg/m3

Compound: CCO [ethanol] + CCn1cc[n+](C)c1.O=S(=O)([O-])O
- speed of sound ([2]; 298.15 K, Frequency=3 MHz): 1142.7 ± 1.5 m/s
- mass density ([2]; 298.15 K): 785.26 ± 2 kg/m3
- speed of sound ([2]; 303.15 K, Frequency=3 MHz): 1125.3 ± 1.5 m/s
- mass density ([2]; 303.15 K): 780.98 ± 2 kg/m3
- speed of sound ([2]; 308.15 K, Frequency=3 MHz): 1108.8 ± 1.5 m/s
- mass density ([2]; 308.15 K): 776.66 ± 2 kg/m3
- speed of sound ([2]; 313.15 K, Frequency=3 MHz): 1091.5 ± 1.5 m/s
- mass density ([2]; 313.15 K): 772.28 ± 2 kg/m3

Compound: CCCO [propan-1-ol]
- speed of sound ([1]; 298.15 K, Frequency=2 MHz): 1206.1 ± 1.6 m/s
- mass density ([1]; 298.15 K): 799.96 ± 2 kg/m3
- speed of sound ([1]; 303.15 K, Frequency=2 MHz): 1189.1 ± 1.6 m/s
- mass density ([1]; 303.15 K): 795.92 ± 2 kg/m3
- speed of sound ([1]; 308.15 K, Frequency=2 MHz): 1172.2 ± 1.6 m/s
- mass density ([1]; 308.15 K): 791.82 ± 2 kg/m3
- speed of sound ([1]; 313.15 K, Frequency=2 MHz): 1155.4 ± 1.6 m/s
- mass density ([1]; 313.15 K): 787.73 ± 2 kg/m3

Compound: CCCO [propan-1-ol] + CCn1cc[n+](C)c1.O=S(=O)([O-])O
- speed of sound ([2]; 298.15 K, Frequency=2 MHz): 1206.1 ± 1.6 m/s
- mass density ([2]; 298.15 K): 799.96 ± 2 kg/m3
- speed of sound ([2]; 303.15 K, Frequency=2 MHz): 1189.1 ± 1.6 m/s
- mass density ([2]; 303.15 K): 795.92 ± 2 kg/m3
- speed of sound ([2]; 308.15 K, Frequency=2 MHz): 1172.2 ± 1.6 m/s
- mass density ([2]; 308.15 K): 791.82 ± 2 kg/m3
- speed of sound ([2]; 313.15 K, Frequency=2 MHz): 1155.4 ± 1.6 m/s
- mass density ([2]; 313.15 K): 787.73 ± 2 kg/m3
